Measurements as given in paper PMC6831628, “Steady-state activation of the high-affinity isoform of the α4β2δ GABAA receptor” (Scientific Reports, 2019).
Values joined by “and” are separate entries in the source; they are usually repeats but may differ in a detail not shown here. Equal values may be shown once. Read-outs that look alike come from different tables or passages of the source.

Experiments:
[1] = biological target: T1, human α4β2δ GABAA receptors (Homo sapiens, UniProt P47870+P48169); experiment: two-electrode voltage clamp of α4β2δ GABAA receptors expressed in Xenopus laevis oocytes (RAD model analysis); assay type: cell-based; conditions: for calculated steady-state POpen: Eq. (4); for EC50: Hill equation; for EC50 / Hill coefficient: mean ± S.D.; for maximal peak open probability (POpen,peak): theoretical/predicted maximum from L, c and N; for contribution towards stabilization of the open state: N×RT×ln(c), GABA 2 sites, propofol 4 sites; for Q (=A/D), equilibrium between active and desensitized states: steady-state currents fitted to Eq. (2), K and c constrained to peak values
T1 construct: expressed in transfected cells; host or cells: Xenopus laevis oocytes injected with cRNA, 5:1:5 (α4:β2:δ)
Protocol: The human α4β2δ GABAA receptors were expressed in Xenopus laevis oocytes. Harvesting of oocytes was conducted under the Guide for the Care and Use of Laboratory Animals as adopted and promulgated by the National Institutes of Health. The animal protocol was approved by the Animal Studies Committee of Washington University in St. Louis (Approval No. 20170071).
The cDNAs of individual subunits in the pcDNA3 vector were linearized with Xba I (NEB Labs, Ipswich, MA). The cRNAs were generated using mMessage mMachine (Ambion, Austin, TX). The oocytes were injected with a total of 11 ng cRNA per oocyte in a 5:1:5 (α4:β2:δ) ratio. Following injection, the oocytes were incubated in bath solution (96 mM NaCl, 2 mM KCl, 1.8 mM CaCl2, 1 mM MgCl2, and 5 mM HEPES; pH 7.4) plus supplements (2.5 mM Na pyruvate, 100 U/ml penicillin, 100 μg/ml streptomycin, and 50 μg/ml gentamycin) at 15 °C for 3–4 days prior to conducting electrophysiological recordings.
The recordings were conducted at room temperature using standard two-electrode voltage clamp. The pipets were filled with 3 M KCl. The oocytes were clamped at −60 mV. The chamber (RC-1Z, Warner Instruments, Hamden, CT) was perfused with bath solution (see above) at 5–8 ml/min. Solutions were gravity-applied from 30-ml glass syringes with glass luer slips via Teflon tubing, and switched manually.
The current responses were amplified with an Axoclamp 900A (Molecular Devices, Sunnyvale, CA) or OC-725C amplifier (Warner Instruments, Hamden, CT), digitized with a Digidata 1320 or 1200 series digitizer (Molecular Devices), and stored using pClamp (Molecular Devices).
In such cases, the number of cell provided is given as a range of cell numbers for each concentration point. […] The level of constitutive activity was determined by exposing the cells to 100–300 μM picrotoxin.
The current traces were analyzed using Clampfit (Molecular Devices) to determine the amplitudes of peak and steady-state responses. If steady-state (defined as ΔI < 2% during the last 20 s of agonist application) was not reached by the end of the agonist application, an estimate was made by exponential fitting of the current decay. Fitting was done using pClamp, to a single exponential or sums of up to three exponentials. The constant offset is reported as the steady-state response.

[2] = biological target: T2, α4β2δ receptor with β2(Y205S) mutation (Homo sapiens, UniProt P47870+P48169, Y229S); experiment: activation of α4β2δ receptor carrying the β2(Y205S) mutation; assay type: cell-based; conditions: data not shown
T2 construct: expressed in transfected cells; host or cells: Xenopus laevis oocytes (inferred from the Methods on α4β2δ)

[3] = biological target: α1β2γ2L receptor with β2(Y205S) mutation (Homo sapiens, UniProt P14867+P47870, Y229S); experiment: activation of α1β2γ2L receptor carrying the β2(Y205S) mutation; assay type: cell-based; conditions: data not shown
α1β2γ2L GABAA receptor = conditions: cited from earlier work
α4β3δ receptors = conditions: oocytes, cited from earlier work
[4] = tested on: receptors resulting from the expression of α4, β (β2 or β3), and δ subunits; conditions: cited from earlier work
[5] = peak currents fitted to Eq. (1)

T1 sequence (P48169 36-554): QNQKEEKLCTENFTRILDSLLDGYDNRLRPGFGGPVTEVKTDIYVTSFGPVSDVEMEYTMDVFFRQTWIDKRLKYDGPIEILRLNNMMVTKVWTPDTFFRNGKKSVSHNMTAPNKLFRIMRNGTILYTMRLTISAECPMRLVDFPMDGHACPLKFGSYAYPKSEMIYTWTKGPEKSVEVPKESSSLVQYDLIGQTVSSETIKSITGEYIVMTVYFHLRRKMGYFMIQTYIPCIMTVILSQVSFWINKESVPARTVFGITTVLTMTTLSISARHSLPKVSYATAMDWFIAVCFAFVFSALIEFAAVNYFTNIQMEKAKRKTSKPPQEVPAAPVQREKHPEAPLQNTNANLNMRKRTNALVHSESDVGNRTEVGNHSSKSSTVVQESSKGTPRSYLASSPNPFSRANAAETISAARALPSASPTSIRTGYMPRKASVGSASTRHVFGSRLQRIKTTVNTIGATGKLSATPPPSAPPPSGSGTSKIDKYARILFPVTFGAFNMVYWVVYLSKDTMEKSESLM
T1 sequence (P47870 25-512 limits assumed): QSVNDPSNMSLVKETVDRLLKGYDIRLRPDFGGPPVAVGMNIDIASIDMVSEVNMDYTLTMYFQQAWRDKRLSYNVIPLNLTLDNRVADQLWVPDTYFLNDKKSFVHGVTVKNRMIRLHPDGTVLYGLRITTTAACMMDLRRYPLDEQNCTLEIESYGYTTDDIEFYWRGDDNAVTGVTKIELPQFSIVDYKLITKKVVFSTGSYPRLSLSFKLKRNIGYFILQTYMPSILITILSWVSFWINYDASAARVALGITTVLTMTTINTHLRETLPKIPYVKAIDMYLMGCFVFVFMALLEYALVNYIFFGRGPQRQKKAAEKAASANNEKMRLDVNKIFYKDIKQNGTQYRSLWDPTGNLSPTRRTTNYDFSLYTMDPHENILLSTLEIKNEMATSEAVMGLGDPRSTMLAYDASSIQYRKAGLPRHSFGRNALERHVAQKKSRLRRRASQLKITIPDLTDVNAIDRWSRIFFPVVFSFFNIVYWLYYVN
T1 sequence (O14764 25-452 partner): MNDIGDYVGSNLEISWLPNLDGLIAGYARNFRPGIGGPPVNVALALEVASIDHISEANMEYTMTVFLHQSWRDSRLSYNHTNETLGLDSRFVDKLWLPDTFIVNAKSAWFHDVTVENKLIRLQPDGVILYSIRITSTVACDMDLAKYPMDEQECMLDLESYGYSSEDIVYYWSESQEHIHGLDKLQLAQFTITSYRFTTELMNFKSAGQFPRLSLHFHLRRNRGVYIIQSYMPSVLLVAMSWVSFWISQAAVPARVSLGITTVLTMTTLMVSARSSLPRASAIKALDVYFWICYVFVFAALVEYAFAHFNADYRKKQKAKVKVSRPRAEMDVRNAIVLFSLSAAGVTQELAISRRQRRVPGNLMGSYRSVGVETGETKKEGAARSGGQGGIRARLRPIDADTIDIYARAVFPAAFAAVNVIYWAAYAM
T2 sequence (P48169 36-554): as the sequence (P48169 36-554) above
T2 sequence (P47870 25-512 Y229S limits assumed): as the sequence (P47870 25-512 limits assumed) above, with Y205S counted along it
T2 sequence (O14764 25-452 partner): as the sequence (O14764 25-452 partner) above
Chain of α1β2γ2L receptor with β2(Y205S) mutation (P14867 28-456): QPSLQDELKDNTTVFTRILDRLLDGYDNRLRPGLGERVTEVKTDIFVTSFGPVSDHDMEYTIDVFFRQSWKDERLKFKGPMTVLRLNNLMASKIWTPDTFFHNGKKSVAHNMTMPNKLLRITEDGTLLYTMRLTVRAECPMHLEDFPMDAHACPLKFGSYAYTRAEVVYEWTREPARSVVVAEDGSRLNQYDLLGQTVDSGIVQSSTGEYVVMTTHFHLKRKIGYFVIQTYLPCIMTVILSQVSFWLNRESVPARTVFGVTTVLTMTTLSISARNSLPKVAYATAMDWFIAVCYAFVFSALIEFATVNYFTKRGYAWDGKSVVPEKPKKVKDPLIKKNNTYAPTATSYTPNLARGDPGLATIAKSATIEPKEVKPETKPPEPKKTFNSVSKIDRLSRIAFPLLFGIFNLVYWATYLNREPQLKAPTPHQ
Chain of α1β2γ2L receptor with β2(Y205S) mutation (P47870 25-512 Y229S limits assumed): as the sequence (P47870 25-512 limits assumed) above, with Y205S counted along it
Chain of α1β2γ2L receptor with β2(Y205S) mutation (P18507 40-475 partner): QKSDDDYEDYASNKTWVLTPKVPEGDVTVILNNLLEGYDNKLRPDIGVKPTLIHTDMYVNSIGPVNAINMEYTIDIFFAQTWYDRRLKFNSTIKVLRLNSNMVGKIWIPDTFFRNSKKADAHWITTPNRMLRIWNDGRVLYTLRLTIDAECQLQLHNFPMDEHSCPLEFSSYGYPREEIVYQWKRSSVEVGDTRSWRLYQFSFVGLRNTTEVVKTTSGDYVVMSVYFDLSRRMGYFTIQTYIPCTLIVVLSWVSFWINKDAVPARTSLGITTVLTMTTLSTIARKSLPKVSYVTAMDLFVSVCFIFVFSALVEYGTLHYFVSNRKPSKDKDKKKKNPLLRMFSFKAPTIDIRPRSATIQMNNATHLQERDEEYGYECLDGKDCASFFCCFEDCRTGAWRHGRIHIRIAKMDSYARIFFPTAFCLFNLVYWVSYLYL

Compound: NCCS(=O)(=O)O [taurine, 2-aminoethanesulfonic acid]
- calculated steady-state POpen ([1]; 10 μM taurine): 0.21
- Q (=A/D), calculated value ([1]; calculated from steady-state open probability with 1 mM taurine): 0.52
- steady-state open probability ([1]; long (190–410 s) applications of 1 mM taurine): 0.23 ± 0.04
- cX, ratio of equilibrium dissociation constant of the open receptor to KX [1, 5]: 0.47 ± 0.02
- Kd ([1]; peak currents fitted to Eq. (1), best-fit ± S.E. of the fit, read-out: KX, equilibrium dissociation constant of the resting receptor): 10 ± 2.1 µM
- EC50 ([1]; peak currents, read-out: EC50): 9.8 µM and 10 µM
- Hill coefficient ([1]; peak currents): 0.70 ± 0.08
- maximal peak open probability (POpen,peak) [1]: 0.44 and 0.4 and ~ 0.4
- activation by taurine [2]: < 0.2 % of the response to GABA + propofol
- activation by taurine [3]: < 0.2 % of the response to GABA + propofol

Compound: CC(C)c1cccc(C(C)C)c1O [propofol]
- predicted POpen,S.S. after addition of propofol ([1]; 1 μM propofol added to 30 nM GABA, 10 μM taurine, 30 nM 3α5αP, 0.1 μM PS): 0.28
- peak response to 0.3 μM GABA with coapplied propofol ([1]; 1 μM propofol, peak response): 151 ± 12 % of control
- steady-state response to 0.3 μM GABA with propofol ([1]; 1 μM propofol, steady-state response): 145 ± 14 % of control
- EC50 ([1]; EC50, peak currents): 7.3 ± 2 µM
- Kd ([1]; KX, equilibrium dissociation constant of the resting receptor, peak currents fitted to Eq. (1), best-fit ± S.E. of the fit): 55.1 µM and > 50 µM
- contribution towards stabilization of the open state [1]: 4.3 kcal/mol
- cX, ratio of equilibrium dissociation constant of the open receptor to KX [1, 5]: 0.16 ± 0.01
- Hill coefficient ([1]; peak currents): 2.17 ± 0.65
- Q (=A/D), equilibrium between active and desensitized states [1]: 1.29 ± 0.14 and 1.29
- maximal peak open probability (POpen,peak) [1]: 0.99 and ~ 0.99

Compound: CC(=O)[C@H]1CC[C@H]2[C@@H]3CC[C@H]4C[C@H](O)CC[C@]4(C)[C@H]3CC[C@]12C [3α5αP, allopregnanolone]
- Kd [1]: 0.21 ± 0.04 µM
- EC50 ([1]; EC50, peak currents): 0.23 ± 0.1 µM
- cX, ratio of equilibrium dissociation constant of the open receptor to KX [1, 5]: 0.68 ± 0.01
- Hill coefficient ([1]; peak currents): 1.17 ± 0.30
- Q (=A/D), equilibrium between active and desensitized states [1]: 0.89 ± 0.33 and 0.89
- maximal peak open probability (POpen,peak) [1]: ~ 0.2
- maximal peak open probability (POpen,peak) ([1]; listed as allopregnanolone): 0.2

Compound: pregnenolone sulfate [PS]
- dPS, ratio of equilibrium dissociation constant of the desensitized receptor to KPS ([1]; fit to Eq. (3), 0.3 μM GABA, 1 site): 0.14 ± 0.02
- high concentration asymptote ([1]; steady-state current elicited by 0.3 μM GABA): 50 ± 4 % of control
- dPS (α1β2γ2L GABAA receptor): 0.11
- Kd (α1β2γ2L GABAA receptor; read-out: KPS): 1.9 µM

Compound: O=c1[nH]oc2c1CCNC2 [THIP]
- EC50 (α4β3δ receptors; read-out: high-affinity component of concentration-response curve): < 0.1 µM
- EC50 (α4β3δ receptors; read-out: low-affinity component of concentration-response curve): > 10 µM

Compound: O=C(Nc1c(-c2cccs2)nc2ccccn12)c1ccc(Cl)cc1 [DS-2]
- direct activation ([1]; isoform investigated in the present study): directly activated
- effect of DS-2 ([4]; high-affinity isoform): directly activated
- effect of DS2 ([4]; low-affinity isoform): potentiated but not directly activated

Compound: NCCCC(=O)O [GABA]
- calculated steady-state POpen ([1]; 30 nM GABA): 0.24
- open probability (peak) ([1]; 0.3 μM GABA, relative to PTX (0) and 10 μM GABA + 50 μM propofol (1)): 0.35 ± 0.09
- contribution towards stabilization of the open state [1]: 0.94 kcal/mol
- Hill coefficient ([1]; peak currents): 0.80 ± 0.09
- steady-state open probability (POpen,S.S.) ([1]; saturating GABA): ~0.3
- Q (=A/D), equilibrium between active and desensitized states [1]: 0.78 ± 0.08 and 0.78
- maximal peak open probability (POpen,peak) [1]: 0.44 and 0.42 and 0.4 and ~ 0.4
- stabilization energy from binding of two GABA molecules (α1β2γ2L GABAA receptor): 6.4 to 7.5 kcal/mol
